According to ChEMBL document CHEMBL1201862, “PubChem BioAssay data set” (2004):
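96-well plates; 48 h exposure; 5 concentrations. Endpoints by linear interpolation between flanking doses. Not reached: highest tested concentration assigned. GI50: concentration for 50% inhibition of growth.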 The source made the active and inactive calls. Rule as the data show it: active = GI50 up to about 1.1 µM and inactive = higher.

Assays:
Assay in all cases: DTP human tumour cell line panel, 48 h
NCI/ADR-RES = tested on: NCI/ADR-RES
HCT-116 = tested on: HCT-116
SK-OV-3 = tested on: SK-OV-3
Malme-3M = tested on: Malme-3M
HCT-15 = tested on: HCT-15
PC-3 = tested on: PC-3
RXF 393 = tested on: RXF 393
Hs-578T = tested on: Hs-578T
HCC 2998 = tested on: HCC 2998
NCI-H23 = tested on: NCI-H23
SN12C = tested on: SN12C
K562 = tested on: K562
IGROV-1 = tested on: IGROV-1
MDA-MB-435 = tested on: MDA-MB-435
UACC-257 = tested on: UACC-257
NCI-H460 = tested on: NCI-H460
T47D = tested on: T47D
NCI-H522 = tested on: NCI-H522
SF-268 = tested on: SF-268

Row | SMILES | GI50 (NCI/ADR-RES) | GI50 (HCT-116) | GI50 (SK-OV-3) | GI50 (Malme-3M) | GI50 (HCT-15) | GI50 (PC-3) | GI50 (RXF 393) | GI50 (Hs-578T) | GI50 (HCC 2998) | GI50 (NCI-H23) | GI50 (SN12C) | GI50 (K562) | GI50 (IGROV-1) | GI50 (MDA-MB-435) | GI50 (UACC-257) | GI50 (NCI-H460) | GI50 (T47D) | GI50 (NCI-H522) | GI50 (SF-268)
1 | Cc1ccc(S(=O)(=O)N/N=C2/C(=O)Nc3c(Cl)cc(Cl)cc32)cc1 | 40 µM (inactive) | 44.3 µM (inactive) | > 100 µM (inactive) | 91.4 µM (inactive) | 68.9 µM | 78.3 µM (inactive) | 43.3 µM (inactive) | 76.6 µM (inactive) | 75.9 µM (inactive) | 63.1 µM (inactive) | > 100 µM (inactive) | 72.1 µM (inactive) | 32.2 µM (inactive) | 51.6 µM (inactive) | > 100 µM (inactive) | 44.2 µM (inactive) | – | – | –
2 | Cc1nnc2n1N=C(c1ccccc1)/C(=C/c1ccc(-c3ccc(Cl)cc3)o1)S2 | – | 12.2 µM (inactive) | 32.1 µM (inactive) | 17.3 µM (inactive) | 8.53 µM | 11.9 µM (inactive) | 10.8 µM (inactive) | 54.3 µM (inactive) | 7.19 µM (inactive) | 15.9 µM (inactive) | 15.6 µM (inactive) | 7.85 µM (inactive) | 18.9 µM (inactive) | 4.61 µM (inactive) | 16.6 µM (inactive) | 15.1 µM (inactive) | 5.22 µM (inactive) | 10.6 µM (inactive) | 14.3 µM (inactive)
3 | CC(=O)N/N=C1\NC(=O)C[C@H]2[C@@H]3CC=C4C[C@@H](OC(C)=O)CC[C@]4(C)[C@H]3CC[C@]12C | 39.4 µM (inactive) | 67 µM (inactive) | 21.1 µM (inactive) | 39.1 µM (inactive) | 38.2 µM | 29.9 µM (inactive) | – | 17.8 µM (inactive) | – | 49.9 µM (inactive) | 29.6 µM (inactive) | > 100 µM (inactive) | 31 µM (inactive) | 4.06 µM (inactive) | 18.7 µM (inactive) | – | > 100 µM (inactive) | 32.1 µM (inactive) | 27.7 µM (inactive)
4 | Oc1ccc([I+]c2ccccc2)cc1O | 28.9 µM (inactive) | 34.4 µM (inactive) | – | 28.8 µM (inactive) | 27.7 µM | 22.3 µM (inactive) | 52.2 µM (inactive) | 48.6 µM (inactive) | 23.9 µM (inactive) | 26.3 µM (inactive) | 40.5 µM (inactive) | 21.6 µM (inactive) | 29.7 µM (inactive) | 23 µM (inactive) | > 100 µM (inactive) | 23.3 µM (inactive) | – | 17.8 µM (inactive) | 42.8 µM (inactive)
5 | Cc1[nH]nc(C(=O)N/N=C/c2ccccc2Cl)c1/N=N\N(C)C | 6.1 µM (inactive) | 4.05 µM (inactive) | > 100 µM (inactive) | > 39.4 µM (inactive) | > 100 µM | 5.7 µM (inactive) | > 37.9 µM (inactive) | 2.09 µM (inactive) | > 100 µM (inactive) | > 25.6 µM (inactive) | > 54.3 µM (inactive) | 0.802 µM (active) | 40.8 µM (inactive) | > 100 µM (inactive) | > 84.7 µM (inactive) | – | – | > 61.4 µM (inactive) | > 100 µM (inactive)
6 | CCN(CC)CCN(/C(=N/c1ccccc1)N1CCCCC1)c1ccccc1 | – | 0.498 µM (active) | 11.9 µM (inactive) | 15.5 µM (inactive) | 17.2 µM | 2.72 µM (inactive) | 17.7 µM (inactive) | 10.3 µM (inactive) | 6 µM (inactive) | 4.38 µM (inactive) | 7 µM (inactive) | 2.18 µM (inactive) | 2.75 µM (inactive) | 3.91 µM (inactive) | 10.6 µM (inactive) | 4.78 µM (inactive) | 2.31 µM (inactive) | 2.62 µM (inactive) | 27.6 µM (inactive)
7 | CN(C)Cc1ccc(-c2cc3onc(-c4ccccc4)c3c(=O)n2C)cc1 | 41.5 µM (inactive) | 14.4 µM (inactive) | 48.8 µM (inactive) | 29 µM (inactive) | 20.5 µM | 39.8 µM (inactive) | – | 19.6 µM (inactive) | – | 29.6 µM (inactive) | 55.6 µM (inactive) | 17.7 µM (inactive) | 36 µM (inactive) | 19.2 µM (inactive) | 18.3 µM (inactive) | 17.5 µM (inactive) | 20 µM (inactive) | 18.7 µM (inactive) | 31.2 µM (inactive)
8 | CC(NC(=O)c1ccc(OP(=O)(OCc2ccc([N+](=O)[O-])o2)N(C)CCCCCl)cc1)c1ccc(OCC2CCCCC2)c(C(N)=O)c1 (configuration not stated) | > 36.6 µM (inactive) | 2.88 µM (inactive) | > 33.1 µM (inactive) | 2.52 µM (inactive) | 2.45 µM | 3.44 µM (inactive) | 2.25 µM (inactive) | – | 3.14 µM (inactive) | 5.19 µM (inactive) | 2.25 µM (inactive) | 2.42 µM (inactive) | 2.75 µM (inactive) | 2.38 µM (inactive) | 3.87 µM (inactive) | 3.27 µM (inactive) | 2.06 µM (inactive) | 2.38 µM (inactive) | 2.67 µM (inactive)
